{"source": "patent US10066025B2", "about": "“Compositions and methods for detecting, treating and preventing diseases and disorders” (YALE UNIVERSITY, priority 2012, dated 2018)", "key": {"[1]": {"test_system": "renal ischemia/reperfusion (IR) injury", "experiment": "Murine model of renal ischemia/reperfusion (IR) injury, plasma creatinine", "format": "in vivo, mice", "conditions": "for effect of ERK or PI3K/AKT inhibitor pretreatment on protective action of RP-H220 / protection against ischemic AKI (renal injury, plasma creatinine at 24 hr): WT mice; for effect of ERK or PI3K/AKT inhibitor pretreatment on protective action of RP-H220: 30 min renal IR; for severity of AKI, inhibitor alone without the peptides: ischemic WT mice; for renal protection (plasma creatinine): 5 mg/kg i.p., 30 min. renal IR; for protection against ischemic AKI (renal injury, plasma creatinine at 24 hr): renalase peptides 100 μg subcutaneous 10 to 30 min prior to 30 min renal ischemia", "method": "Adult male renalase deficient (KO) mice (Wu et al., 2011, Kidney Int 79: 853-860) on a C57BL/6 background were subjected to renal ischemia/reperfusion (IR) as described (Kim et al., 2009, Kidney Int 75: 809-823; Kim et al., 2010, Am J Physiol Renal Physiol 299(2):F347-58). Renalase KO or wild type (WT) mice (C57BL/6 from Harlan Labs, Indianapolis, Ind.) were subjected to sham-operation or to 20 min. (moderate) or 30 min. (severe) renal ischemia and 24 hr. reperfusion. To test the renal protective effects of recombinant human renalase, mice were pretreated with saline (vehicle) or with recombinant renalase (0.5, 1.5 or 4.5 mg/kg, s.c.) 10 min. prior to 30 min. renal ischemia. It was also tested whether renalase treatment after completion of renal ischemia also provides renal protection. Separate cohorts of mice were treated with saline or with renalase (1.5 mg/kg, s.c.) 30 min. or 60 min. after reperfusion of the ischemic kidney. To test whether blocking alpha receptors would mimic the renal protective effects of human recombinant renalase administration, phentolamine (an alpha receptor antagonist, 5 mg/kg, i.p.) was given in some mice 15 min. before renal ischemia.\nPlasma creatinine was measured as described with an enzymatic creatinine reagent kit according to the manufacturer's instructions (Thermo Fisher Scientific, Waltham, Mass.) (Slot, 1965, J Clin Lab Invest 17: 381-387).\nAfter animal care and use committee approval, adult male C57BL/6 (Harlan Labs, Indianapolis, Ind.) were subjected to sham-operation or to 30 minutes of renal ischemia followed by 24 hrs of reperfusion as previously described (Lee et al., 2004, American journal of physiology. Renal physiology 286:F298-306). To test the renal protective effects of renalase peptides (RP-220, RP-H220 and RP-224), mice were pretreated with saline (vehicle) or with renalase peptides (100 μg subcutaneous) 10 to 30 minutes prior to renal ischemia.\nBlood was collected from mice anesthetized with isoflurane via cardiac puncture into a heparinized syringe and was subsequently centrifuged to separate plasma. Samples were submitted to the Yale O'Brien Kidney Center for measurement of BUN and creatinine. Plasma creatinine was measured either by an enzymatic creatinine reagent kit according to the manufacturer's instructions (Thermo Fisher Scientific, Waltham, Mass.) or by HPLC. These methods of creatinine measurement largely eliminate the interferences from mouse plasma chromagens, known to occur with the Jaffe method."}, "[2]": {"test_system": "systemic blood pressure", "experiment": "Blood pressure and heart rate in anesthetized mice", "format": "in vivo", "conditions": "for effect on systemic blood pressure: IV and subcutaneous administration, mice", "method": "As in 14A, except that RP-H220 is injected; no significant changes in blood pressure (FIG. 14B). Effect of a single intravenous injection of RP-220 (squares) and RP-H220 (diamonds) on heart rate in wild type mice (FIG. 14C).\nFIG. 21 depicts the results of experiments examining the effect of RP-220 injection on blood pressure. A single subcutaneous injection of RP-220 (n=3) or buffer (n=2) in anesthetized wild type mice; BP pressure is recorded continuously; RP-220 is given at time 0; each data point represents the mean pressure; the standard error of the means are shown.\nSystolic and diastolic pressure and heart rate were measured in anesthetized mice as previously described (Desir et al., 2012, J Am Heart Assoc. 1:e002634)."}, "[3]": {"test_system": "PI3K/AKT and MAPK pathways", "experiment": "AKT and MAPK signaling and Bcl-2 expression by western blot", "format": "cell-based, human", "conditions": "HK-2 cells in culture", "method": "FIG. 12, comprising FIGS. 12A through 12E, is a set of images and graphs showing renalase upregulates Bcl-2, activates PI3K/AKT, ERK, p38, and inhibits JNK. Western blot analysis; P− indicates phosphorylated, activated proteins; signals normalized to GAPDH loading control, then changes in protein phosphorylation (increase=activation, decrease=inhibition) from time 0 are calculated. FIG. 12A: HK-2 and HUVEC cells incubated with renalase for 24 hrs; FIG. 12B: Western blot of time course of AKT and MAPK signaling by renalase, HK-2 cells incubated with renalase for indicated time; changes over baseline in 4c-d are significant (p<0.05); FIG. 12C: Activation of AKT(T308), AKT(5473) and ERK; FIG. 12D: Inhibition of JNK; FIG. 12E: Marked and sustained (60 min) upregulation of p38 by renalase in the presence of cisplatin, western blot for time course, REN=renalase, CP=cisplatin.\nMAPK signaling by renalase and renalase peptides. Western blot analysis; ERK: Extracellular signal-Regulated Kinase 1 and 2; JNK: c-Jun N-terminal Kinases; AKT: protein kinase B; p-indicates phosphorylated, activated proteins; representative blot, n=3 (FIG. 20A). Renalase activates AKT (FIG. 20B). Western blot analysis; P− indicates phosphorylated, activated proteins Representative blot, n=3 (FIG. 20B, left panel). Signals normalized to GAPDH loading control; n=3, change over baseline statistically significant (P<0.05) from 1-60 min for ERK, p38 and AKT (T308), and at 30 min only for AKT (S473) (FIG. 20B, right panel). ERK or AKT inhibition abrogates protective effect of RP-H220 (FIG. 20C). Plasma creatinine levels from mice subjected to sham-surgery or to renal ischemia and reperfusion (IR); Renalase WT mice were subjected to sham-surgery or to 30 min renal IR. For mice subjected to renal IR, RP-H220 or vehicle (saline) was injected 10 min prior to renal ischemia. Some animals were pretreated with either the ERK inhibitor PD98059 or the PI3K/AKT inhibitor wortmanin. (N=6-8 per group). *: P<0.05 vs. vehicle-treated mice subjected to sham-surgery; #: P<0.05 vs. vehicle-treated WT mice subjected to renal IR (FIG. 20C)."}, "[4]": {"test_system": "HK-2 cells", "experiment": "HK-2 cell cisplatin toxicity (WST-1 viability, western blot)", "format": "cell-based, human", "conditions": "20 μM cisplatin, 24 hrs", "method": "Cultured HK-2 cells were incubated with 20 μM cisplatin for 24 hours with and without recombinant renalase. Renalase expression was examined by Western blot and cell viability (mitochondrial integrity) was determined spectrophotometrically using WST-1, a tetrazolium salt that is cleaved, by mitochondrial dehydrogenases of metabolically active and viable cells, to formazan (420-480 nm) (Boehringer Mannheim, Germany).\n(§1) HK2 cells (human proximal tubular line) obtained from ATTC (Manassas, Va., USA) were cultured in DMEM/F12 supplemented with glutamine, 10% FBS and antibiotics, and were maintained at 37° C. in 5% CO2. Cells were exposed to cisplatin (20 μM) in the presence or absence of renalase for 24 hrs, and cell viability was assessed by the WST1 method (Roche Applied Science, Germany). Cells were then harvested in RIPA buffer (20 mM Tris-HCl pH 7.5, 150 mM NaCl, 1 mM Na2EDTA, 1 mM EGTA, 1% NP-40, 1% sodium deoxycholate, 2.5 mM sodium pyrophosphate, 1 mM β-glycerophosphate, 1 mM Na3VO4, 1 μg/ml leupeptin) supplemented with a protease and phosphatase inhibitor cocktail (Roche Applied Science, Germany). Proteins were separated by SDS-PAGE and Western blotting was carried out using the following antibodies: anti-renalase monoclonal (Desir et al., 2012, J Am Heart Assoc. 1:e002634; (Lee et al., 2013, J Am Soc Nephrol 24:445-455); anti caspase 3 (Cell Signaling Technology, MA, USA) and anti Bcl2 (Thermo Scientific, USA). Necrotic injury in HK-2 cells (ATCC, Manassas, Va.) was induced with exposure to 2 mM H2O2 for 2-8 hr and lactate dehydrogenase (LDH) released into cell culture media was measured as described using a commercial LDH assay kit (Promega, Madison, Wis.) (Lee and Emala, 2002, American journal of physiology. Renal physiology 282:F844-852)."}, "[5]": {"test_system": "HK-2 cells", "experiment": "HK-2 cell necrosis induced with 2 mM H2O2 (LDH release)", "format": "cell-based, human", "method": "as §1"}}, "data": [{"compound": "COc1cccc(-c2cc(=O)c3ccccc3o2)c1N", "note": "[PD98059, 2′-amino 3′ methoxyflavone, reference compound]", "values": [{"measurement": "effect of ERK or PI3K/AKT inhibitor pretreatment on protective action of RP-H220", "setting": "[1]", "value": "completely abrogated"}, {"measurement": "severity of AKI, inhibitor alone without the peptides", "setting": "[1]", "value": "had no effect on the severity of AKI"}]}, {"compound": "Cc1ccc(N(CC2=NCCN2)c2cccc(O)c2)cc1", "note": "[Phentolamine, reference compound]", "values": [{"measurement": "renal protection (plasma creatinine)", "setting": "[1]; renalase KO mice", "value": "protected renalase KO mice"}, {"measurement": "renal protection (plasma creatinine)", "setting": "[1]; renalase WT mice", "value": "produced significant renal protection"}]}, {"compound": "COC[C@H]1OC(=O)c2coc3c2[C@@]1(C)C1=C(C3=O)[C@@H]2CCC(=O)[C@@]2(C)C[C@H]1OC(C)=O", "note": "[wortmanin, reference compound]", "values": [{"measurement": "effect of ERK or PI3K/AKT inhibitor pretreatment on protective action of RP-H220", "setting": "[1]", "value": "A similar result was obtained"}, {"measurement": "severity of AKI, inhibitor alone without the peptides", "setting": "[1]", "value": "had no effect on the severity of AKI"}]}, {"compound": "RP 19: renalase peptide, SEQ ID NO: 8, LLRRQTSGPLYLAVWDKAED (listed as Homo sapiens)", "values": [{"measurement": "effect on systemic blood pressure", "setting": "[2]", "value": "no effect on BP"}]}, {"compound": "RP 128: renalase peptide, SEQ ID NO: 7, FRHRVTQINLRDDKWEVSKQ (listed as Homo sapiens)", "values": [{"measurement": "effect on systemic blood pressure", "setting": "[2]", "value": "no effect on BP"}]}, {"compound": "RP 220 scrambled: scrambled RP-220, SEQ ID NO: 6, CSKRIFKVISSIEDNNERG (listed as Homo sapiens) [reference compound]", "values": [{"measurement": "effect on systemic blood pressure", "setting": "[2]", "value": "no effect on BP"}, {"measurement": "effect on blood pressure and heart rate", "setting": "[2]; anesthetized WT mice", "value": "no effect on blood pressure and heart rate"}, {"measurement": "AKT and MAPK signaling (phosphorylation of ERK, p38, AKT)", "setting": "[3]; listed as RP-Scr220", "value": "did not activate the AKT and MAPK signaling"}, {"measurement": "AKT and MAPK signaling (phosphorylation of ERK, p38, AKT)", "setting": "[3]; listed as scrambled RP H220", "value": "not"}]}, {"compound": "RP 220: renalase peptide, amino acids 220-239, SEQ ID NO: 3, CIRFVSIDNKKRNIESSEIG (listed as Homo sapiens)", "values": [{"measurement": "cell survival / protection against cisplatin toxicity", "setting": "[4]", "value": "improved HK-2 cell survival"}, {"measurement": "protection against ischemic AKI (renal injury, plasma creatinine at 24 hr)", "setting": "[1]", "value": "less effective"}, {"measurement": "protection against ischemic AKI (renal injury, plasma creatinine at 24 hr)", "setting": "[1]; listed as RP-220", "value": "reduced renal injury"}, {"measurement": "effect on systemic blood pressure", "setting": "[2]", "value": "marked and sustained effect on systemic blood pressure"}, {"measurement": "mean blood pressure decrease at 15 min", "setting": "[2]; WT mice, n=4, P=NS", "value": "11.9±0.9", "unit": "mmHg"}, {"measurement": "blood pressure after single intravenous injection", "setting": "[2]; anesthetized WT mice", "value": "profound fall in blood pressure"}, {"measurement": "blood pressure after subcutaneous administration", "setting": "[2]; anesthetized WT mice", "value": "decreased blood pressure"}, {"measurement": "delay in the onset of fall in blood pressure after subcutaneous administration", "setting": "[2]; anesthetized WT mice", "value": "30 to 60", "unit": "min"}, {"measurement": "duration of fall in blood pressure after intravenous injection", "setting": "[2]; anesthetized WT mice", "value": "up to two hours"}, {"measurement": "heart rate increase", "setting": "[2]; anesthetized WT mice", "value": 5, "unit": "%"}, {"measurement": "onset of fall in blood pressure after intravenous injection", "setting": "[2]; anesthetized WT mice", "value": "≤ 30", "unit": "s"}, {"measurement": "AKT and MAPK signaling (phosphorylation of ERK, p38, AKT)", "setting": "[3]", "value": "rapid and transient phosphorylation"}, {"measurement": "necrosis induced with 2 mM H2O2", "setting": "[5]; at 2 and 4 hrs", "value": "significantly reduced necrosis"}]}, {"compound": "RP 224: renalase peptide amino acid 224-233, SEQ ID NO: 2, CVSIDNKKRNI (listed as Homo sapiens)", "values": [{"measurement": "cell survival / protection against cisplatin toxicity", "setting": "[4]", "value": "improved HK-2 cell survival"}, {"measurement": "protection against ischemic AKI (renal injury, plasma creatinine at 24 hr)", "setting": "[1]", "value": "not protective"}, {"measurement": "protection against ischemic AKI (renal injury, plasma creatinine at 24 hr)", "setting": "[1]; listed as RP-224", "value": "ineffective"}, {"measurement": "effect on systemic blood pressure", "setting": "[2]", "value": "no effect on BP"}, {"measurement": "effect on blood pressure and heart rate", "setting": "[2]; anesthetized WT mice", "value": "no effect on blood pressure and heart rate"}, {"measurement": "protection against 2 mM H2O2 necrosis", "setting": "[5]; at 2 hrs", "value": "protective at 2 hrs"}, {"measurement": "protection against 2 mM H2O2 necrosis", "setting": "[5]; at 4 hrs", "value": "not at 4 hrs"}]}, {"compound": "RP A220: renalase peptide, SEQ ID NO: 5, IRFVSIDNAAANIESSEIG (listed as Homo sapiens)", "values": [{"measurement": "effect on systemic blood pressure", "setting": "[2]", "value": "no effect on BP"}]}]}
